{
  "source": "patent US20140274981A1",
  "about": "“PHARMACEUTICAL COMPOSITION OF S-KETAMINE HYDROCHLORIDE” (JANSSEN PHARMACEUTICA NV, priority 2013, published 2014)",
  "key": {"C. albicans": {"system": "C. albicans", "assay": "Full AET challenge test", "details": "original spike 10^5-10^6 CFU/ml, after 28 days"}, "S. haemolyticus": {"system": "S. haemolyticus", "assay": "Microbial challenge test (Example 1)", "details": "original spike 10^5-10^6 CFU/ml"}, "P. aeruginosa": {"system": "P. aeruginosa", "assay": "Full AET challenge test", "details": "original spike 10^5-10^6 CFU/ml, after 28 days"}, "S. aureus": {"system": "S. aureus", "assay": "Full AET challenge test", "details": "original spike 10^5-10^6 CFU/ml, after 28 days"}, "A. brasiliensis": {"system": "A. brasiliensis", "assay": "Full AET challenge test", "details": "original spike 10^5-10^6 CFU/ml, 28 days at room temperature"}, "M. luteus": {"system": "M. luteus", "assay": "Full AET challenge test", "details": "original spike 10^5-10^6 CFU/ml, after 28 days"}, "E. coli": {"system": "E. coli", "assay": "Full AET challenge test", "details": "original spike 10^5-10^6 CFU/ml, after 28 days"}},
  "data": [
    {"smiles": "CN[C@]1(c2ccccc2Cl)CCCCC1=O.Cl", "note": "[S-ketamine hydrochloride, (S)-2-(2-chlorophenyl)-2-(methylamino)cyclohexanone hydrochloride]", "values": [
      {"measurement": "Effect on the original spike (in words)", "setting": "C. albicans", "value": "strong antimicrobial properties"},
      {"measurement": "Effect on the original spike (in words)", "setting": "S. haemolyticus", "value": "strong antimicrobial properties"},
      {"measurement": "Effect on the original spike (in words)", "setting": "P. aeruginosa", "value": "strong antimicrobial properties"},
      {"measurement": "Effect on the original spike (in words)", "setting": "S. aureus", "value": "strong antimicrobial properties"},
      {"measurement": "Effect on the original spike (in words)", "setting": "A. brasiliensis", "value": "some inhibitory activity"},
      {"measurement": "Effect on the original spike (in words)", "setting": "M. luteus", "value": "strong antimicrobial properties"},
      {"measurement": "Effect on the original spike (in words)", "setting": "E. coli", "value": "strong antimicrobial properties"}
    ]}
  ]
}
